Results on five compounds are retold here after paper PMC6000670, “Dihydropyridines Allosterically Modulate Hsp90 Providing a Novel Mechanism for Heat Shock Protein Co-induction and Neuroprotection” (Frontiers in Molecular Biosciences, 2018).

Where two headings read alike, the source gives them in different places.

Test [1] addresses T1, yeast Hsp90 N-terminal domain (Hsp90^1−220) (Saccharomyces cerevisiae, UniProt P02829).
T1 construct: Hsp90^1−220 (N-terminal domain); made in house
Description: ITC binding to yeast Hsp90 N-terminal domain. Particulars: isolated N-terminal domain of yeast Hsp90.

For test [2], the system named is APPxPS1 transgenic mouse model of AD. On the set-up: method as in Kasza et al., 2016. Particulars: ref Kasza et al., 2016, cited from earlier work.
The target in another test is yeast Hsp90^273−709 (Saccharomyces cerevisiae, UniProt P02829). The experiment in a line: ITC binding to yeast Hsp90 273-709 (middle and C-terminal domain). Particulars: for ΔH / ΔS: ITC, Yeast 273–709.
Chain of yeast Hsp90^273−709 (P02829 273-709): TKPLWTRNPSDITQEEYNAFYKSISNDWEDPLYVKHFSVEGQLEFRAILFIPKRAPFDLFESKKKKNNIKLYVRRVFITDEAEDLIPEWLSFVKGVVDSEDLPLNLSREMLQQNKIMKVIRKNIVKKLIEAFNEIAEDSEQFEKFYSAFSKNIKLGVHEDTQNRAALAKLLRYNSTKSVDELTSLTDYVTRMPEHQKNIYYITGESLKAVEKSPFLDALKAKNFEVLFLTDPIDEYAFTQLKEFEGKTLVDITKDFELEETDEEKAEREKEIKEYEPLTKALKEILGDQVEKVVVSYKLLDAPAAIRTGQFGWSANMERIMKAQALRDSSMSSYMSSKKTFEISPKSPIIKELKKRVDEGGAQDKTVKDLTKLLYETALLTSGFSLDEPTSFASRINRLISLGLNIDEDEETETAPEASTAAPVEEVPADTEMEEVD
A further test deals with yeast Hsp90^546−709 (Saccharomyces cerevisiae, UniProt P02829). Description: ITC binding to yeast Hsp90 546-709 (C-terminal domain).
Chain of yeast Hsp90^546−709 (P02829 546-709): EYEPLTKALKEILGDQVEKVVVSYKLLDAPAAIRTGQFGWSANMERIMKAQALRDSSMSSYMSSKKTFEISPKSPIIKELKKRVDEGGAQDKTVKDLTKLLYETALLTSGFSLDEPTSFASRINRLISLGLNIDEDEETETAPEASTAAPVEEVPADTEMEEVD
The target of test [3] is T2, yeast Hsp90 (Saccharomyces cerevisiae, UniProt P02829). Description: ITC binding to yeast full-length Hsp90.
T2 sequence (P02829 whole entry): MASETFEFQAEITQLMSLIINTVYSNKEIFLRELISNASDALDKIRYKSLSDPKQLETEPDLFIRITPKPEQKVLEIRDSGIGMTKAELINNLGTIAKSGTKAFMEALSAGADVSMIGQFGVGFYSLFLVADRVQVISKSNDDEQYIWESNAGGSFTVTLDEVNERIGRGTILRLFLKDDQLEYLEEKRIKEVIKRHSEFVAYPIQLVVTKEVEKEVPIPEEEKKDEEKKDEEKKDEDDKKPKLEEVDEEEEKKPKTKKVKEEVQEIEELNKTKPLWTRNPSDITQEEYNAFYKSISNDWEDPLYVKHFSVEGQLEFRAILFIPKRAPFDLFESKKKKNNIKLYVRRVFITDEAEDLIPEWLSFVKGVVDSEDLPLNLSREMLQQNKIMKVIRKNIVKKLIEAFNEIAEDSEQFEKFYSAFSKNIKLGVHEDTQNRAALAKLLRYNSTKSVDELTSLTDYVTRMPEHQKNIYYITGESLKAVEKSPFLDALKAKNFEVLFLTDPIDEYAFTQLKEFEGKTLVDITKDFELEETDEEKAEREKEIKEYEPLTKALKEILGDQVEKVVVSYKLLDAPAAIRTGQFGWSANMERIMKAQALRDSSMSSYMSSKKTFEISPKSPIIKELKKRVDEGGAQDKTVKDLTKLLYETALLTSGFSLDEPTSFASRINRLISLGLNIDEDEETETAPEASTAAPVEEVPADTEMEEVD
Test [4] has as its target T2, yeast Hsp90. Description: Citrate synthase aggregation assay.
Test [5] relates to SH-SY5Y human neuroblastoma cell line. On the set-up: method as in Kasza et al., 2016. Particulars: ref Kasza et al., 2016; cited from earlier work.
For a further test, the target named is yeast Hsp90-P661R (Saccharomyces cerevisiae, UniProt P02829, P661R). Description: ITC binding to yeast Hsp90 mutant P661R.
For test [6], the target named is yeast Hsp90–AMPPNP complex (Saccharomyces cerevisiae, UniProt P02829). Description: ITC binding to yeast Hsp90-AMPPNP complex.
Chain of yeast Hsp90–AMPPNP complex (P02829 whole entry, one chain of several): as the sequence (P02829 whole entry) above
Another test deals with human Hsp72 (Homo sapiens, UniProt P0DMV8). The experiment in a line: ITC binding to human Hsp72. Particulars: 1 mM LA1011 into 60 μM human Hsp72.
Chain of human Hsp72 (P0DMV8 whole entry, the tested form may be a part): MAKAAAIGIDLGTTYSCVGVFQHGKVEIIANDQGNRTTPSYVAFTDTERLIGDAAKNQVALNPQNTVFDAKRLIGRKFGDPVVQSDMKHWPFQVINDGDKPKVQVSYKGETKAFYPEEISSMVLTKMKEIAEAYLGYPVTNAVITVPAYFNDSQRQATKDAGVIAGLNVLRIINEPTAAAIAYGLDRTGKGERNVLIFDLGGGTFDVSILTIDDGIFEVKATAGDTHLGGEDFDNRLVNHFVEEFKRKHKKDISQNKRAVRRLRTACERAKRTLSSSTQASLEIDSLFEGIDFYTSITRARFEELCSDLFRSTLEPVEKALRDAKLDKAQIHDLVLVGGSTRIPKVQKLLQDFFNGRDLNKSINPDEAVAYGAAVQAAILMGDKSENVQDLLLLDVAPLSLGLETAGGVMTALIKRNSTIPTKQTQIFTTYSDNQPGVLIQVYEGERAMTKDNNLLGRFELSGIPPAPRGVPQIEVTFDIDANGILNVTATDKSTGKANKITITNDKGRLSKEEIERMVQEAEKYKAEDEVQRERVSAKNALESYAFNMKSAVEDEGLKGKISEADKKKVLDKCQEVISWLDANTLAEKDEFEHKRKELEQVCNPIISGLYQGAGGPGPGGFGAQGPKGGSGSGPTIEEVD
Test [7] concerns the target human Hsp90α N-terminal domain (Hsp90^9−236) (Homo sapiens, UniProt P07900). The experiment in a line: ITC binding to human Hsp90α N-terminal domain. Particulars: isolated N-terminal domain of human Hsp90α.
The target of the next test is Hsp90^1−560 (Saccharomyces cerevisiae, UniProt P02829). The experiment in a line: ITC binding to yeast Hsp90 1-560 (N and middle domain). Particulars: Hsp90 1−560, N- and middle-domain of yeast Hsp90.
The next test addresses human Hsp90β (Homo sapiens, UniProt P08238). Description: ITC binding to human full-length Hsp90β.
The target in test [8] is Hsp90-AMPPNP-Sba1 complex (Saccharomyces cerevisiae, UniProt P02829). The experiment in a line: ITC binding to Hsp90-AMPPNP-Sba1 complex.
Chain of Hsp90-AMPPNP-Sba1 complex (P02829 whole entry): as the sequence (P02829 whole entry) above
Chain of Hsp90-AMPPNP-Sba1 complex (P28707 whole entry partner): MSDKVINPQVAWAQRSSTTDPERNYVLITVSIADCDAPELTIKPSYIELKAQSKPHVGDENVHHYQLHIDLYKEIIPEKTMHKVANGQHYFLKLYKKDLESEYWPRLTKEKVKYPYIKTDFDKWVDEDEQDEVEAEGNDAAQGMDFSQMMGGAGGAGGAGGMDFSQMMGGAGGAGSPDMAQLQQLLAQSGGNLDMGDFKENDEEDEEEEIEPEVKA
The target in test [9] is T2, yeast Hsp90. Description: Hsp90 ATPase assay.
Another test has as its target yeast Hsp90-ADP complex (Saccharomyces cerevisiae, UniProt P02829). The experiment in a line: ITC binding to yeast Hsp90-ADP complex.
A further test concerns Hsp90. The experiment in a line: Refolding of denatured luciferase in rabbit reticulocyte lysate. It counts as biochemical.
A further test has as its target human Hsp90α (Homo sapiens, UniProt P07900). The experiment in a line: ITC binding to human full-length Hsp90α.
Test [10] addresses T2, yeast Hsp90. Also on record: pRSETA was used to express yeast full–length Hsp90; made in house; method as in Prodromou et al., 1999. Particulars: Sti1 to yeast Hsp90 without LA1011; ref Prodromou et al., 1999; cited from earlier work.
The mark [11] stands for this setting: 2 μM yeast Hsp90, non-inhibited turnover 1.2 per min.

Chain of human Hsp90β (P08238 whole entry): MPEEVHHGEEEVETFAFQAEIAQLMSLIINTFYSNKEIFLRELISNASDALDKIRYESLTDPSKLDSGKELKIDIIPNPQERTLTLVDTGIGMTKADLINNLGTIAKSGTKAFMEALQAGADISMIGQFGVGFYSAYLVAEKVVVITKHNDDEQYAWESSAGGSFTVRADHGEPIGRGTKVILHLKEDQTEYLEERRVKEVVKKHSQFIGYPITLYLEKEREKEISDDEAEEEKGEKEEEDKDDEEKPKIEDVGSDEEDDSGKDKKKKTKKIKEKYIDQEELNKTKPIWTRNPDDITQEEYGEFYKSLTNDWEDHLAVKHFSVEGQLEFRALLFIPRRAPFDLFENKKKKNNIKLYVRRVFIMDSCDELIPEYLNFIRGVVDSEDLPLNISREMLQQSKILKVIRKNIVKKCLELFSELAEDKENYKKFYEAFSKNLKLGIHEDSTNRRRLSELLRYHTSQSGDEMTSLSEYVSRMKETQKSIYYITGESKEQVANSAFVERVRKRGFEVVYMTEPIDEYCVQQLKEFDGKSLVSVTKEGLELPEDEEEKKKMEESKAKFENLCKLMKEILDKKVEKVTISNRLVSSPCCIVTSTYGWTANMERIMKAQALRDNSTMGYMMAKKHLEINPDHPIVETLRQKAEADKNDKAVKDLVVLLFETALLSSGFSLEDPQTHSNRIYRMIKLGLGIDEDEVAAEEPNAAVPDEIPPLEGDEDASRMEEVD
Chain of yeast Hsp90-ADP complex (P02829 whole entry, one chain of several): as the sequence (P02829 whole entry) above

By Kd is commonly meant the constant that tells how readily two partners part at equilibrium. In the case of `COC(=O)C1=C(CCN(C)C)N(C)C(CCN(C)C)=C(C(=O)OC)C1c1ccc(C(F)(F)F)cc1` [LA1011], the binding result was “failed to bind” in [1], “did not interact” on human Hsp72, “failed to bind” in [7] and “failed to bind” at Hsp90^1−560. Moreover, the neuroprotective effect result in test [2] (APPxPS1 transgenic mouse model of AD) is “could protect neurons in the hippocampus, could decrease Tau-accumulation and was able to preserve dendritic spines”. The “levels that had an effect in mouse models” value in test [2] (mouse models) was 5 to 10 µM. The Kd on yeast Hsp90^273−709 came to 9.7 ± 0.7 µM; on yeast Hsp90^546−709, 60.6 ± 7.9 µM; on yeast Hsp90 [3] it was 13.5 ± 0.9 µM; at yeast Hsp90-P661R, 80.6 ± 19 µM; in test [6] it was 66.2 ± 21.4 µM; at human Hsp90β, 9.7 ± 0.7 µM. For the same compound, the dissociation constant (Kd) in test [8] amounted to 23.1 ± 1.9 µM; on yeast Hsp90-ADP complex, 66.2 ± 29.7 µM; on human Hsp90α, 3.8 ± 0.7 µM. Further, the ΔH at yeast Hsp90^273−709 is -5.11 ± 0.187 kcal/mol; at yeast Hsp90^546−709 (ITC, Yeast 546–709), -2.603 ± 0.706 kcal/mol; on yeast Hsp90 [3] (ITC, Yeast Hsp90), -4.863 ± 0.194 kcal/mol; at human Hsp90β (ITC, Hsp90β), -0.6549 ± 0.0435 kcal/mol; on human Hsp90α (ITC, Hsp90α) it was -0.792 ± 0.0807 kcal/mol. In addition, the ΔS on yeast Hsp90^273−709 is on record as 6.07 cal/mol/Deg; on yeast Hsp90^546−709 (ITC, Yeast 546–709), 10.7 cal/mol/Deg; on yeast Hsp90 [3] (ITC, Yeast Hsp90) it was 6.24 cal/mol/Deg; at human Hsp90β (ITC, Hsp90β), 20.8 cal/mol/Deg; on human Hsp90α (ITC, Hsp90α), 22.2 cal/mol/Deg. Moreover, the “N (stoichiometry)” value was determined as 0.53 on yeast Hsp90 [3] (ITC, Yeast Hsp90); 0.27 at human Hsp90β (ITC, human Hsp90β); 0.35 at human Hsp90α (ITC, human Hsp90α). Also, the “LA1011 required to achieve 88% occupancy” value was determined as 100 µM on yeast Hsp90 [3] (in the absence of ATP) and 0.5 mM in test [6] (in the presence of ATP). The “disruption of Hsp90's ability to protect citrate synthase from aggregation” value on yeast Hsp90 [4] (0.1–0.2 mM LA1011, 600 nM Hsp90, 45°C) is “around 50%”. The fractional occupancy on yeast Hsp90 [4] (calculated as [ligand]/[ligand]+Kd, Kd 13 μM, at 0.1–0.2 mM LA1011) is reported as 88–93%. For the same compound, in test [5], the “heat shock protein co-induction” value was “co-inducers of Hsp70 and Hsp27”. The “effect on ATPase activity of Hsp90” value at yeast Hsp90 [9] (setting [11]) is on record as “activated the ATPase activity”; on yeast Hsp90 [9] (10 μM LA1011), “marginal effects”. The “stimulation of the ATPase” value at yeast Hsp90 [9] (240 μM LA1011) worked out at 2 fold. Further, the “inhibition of luciferase refolding” value in the test with Hsp90 (1 mM LA1011, rabbit reticulocyte lysate) is listed as “around 50%”. In addition, the refolding of luciferase entry with Hsp90 (5 mM LA1011, rabbit reticulocyte lysate) was “completely prevented refolding of luciferase”.
Turning to Sti1: yeast co-chaperone of Hsp90, the Kd in the test with yeast Hsp90 [10] was 0.33 ± 0.03 µM.
Regarding `COC(=O)C1=C(C)N(C)C(CCN2CCOCC2)=C(C(=O)OC)C1c1ccc(C(F)(F)F)cc1` (stereo not drawn) [LA1014], on yeast Hsp90^273−709, the Kd turned out to be 20.2 ± 3 µM, the ΔH is -0.8714 ± 0.145 kcal/mol and the ΔS came to 18.6 cal/mol/Deg. Also, the “effect on ATPase activity of Hsp90” value on yeast Hsp90 [9] (setting [11]) is given as “activated the ATPase activity”.
`COC1=C2C[C@@H](C)C[C@H](OC)[C@H](O)[C@@H](C)/C=C(\C)[C@H](OC(N)=O)[C@@H](OC)/C=C\C=C(/C)C(=O)NC(=CC1=O)C2=O` [geldanamycin, reference compound]: on yeast Hsp90 [9] (setting [11]), the “effect on ATPase activity of Hsp90” value is on record as “inhibition of Hsp90 ATPase activity”.
As for `COC(=O)C1=C(CCN(C)C)N(C)C(CCN(C)C)=C(C(=O)OC)C1c1cc(F)cc(F)c1` [LA1026], on yeast Hsp90^273−709, the affinity, expressed as Kd, was 48.8 ± 4.7 µM; the ΔH is -1.233 ± 0.21 kcal/mol; the ΔS is 15.7 cal/mol/Deg. Moreover, the “effect on ATPase activity of Hsp90” value on yeast Hsp90 [9] (setting [11]) is “activated the ATPase activity”.
